Measurements: patent US20120064513A1, “Cell Sensor, And Monitoring Method Using Same For The Real-Time Monitoring Of Cell Capacitance” (Industry-Acaddemic Cooperation Foundation, Yonsei …, priority 2009, published 2012)

B1: TRAIL: cell death-inducing agent, TRAIL (TNF related apoptosis inducing ligand) (protein, UniProt P50591 1-281, looked up)
Tumor necrosis factor ligand …: MAMMEVQGGPSLGQTCVLIVIFTVLLQSLCVAVTYVYFTNELKQMQDKYSKSGIACFLKEDDSYWDPNDEESMNSPCWQVKWQLRQLVRKMILRTSEETISTVQEKQQNISPLVRERGPQRVAAHITGTRGRSNTLSSPNSKNEKALGRKINSWESSRSGHSFLSNLHLRNGELVIHEKGFYYIYSQTYFRFQEEIKENTKNDKQMVQYIYKYTSYPDPILLMKSARNSCWSKDAEYGLYSIYQGGIFELKENDRIFVSVTNEHLIDMDHEASFFGAFLVG

Test system: HEP1 cell highly expressing CAR (coxsackie and adenovirus receptor)
Test: real-time monitoring of cell capacitance with the cell sensor, HEP1 cells
Type: cell-based
Excerpt: The cell sensor 100 is connected to an LCR meter to measure capacitance, thereby monitoring potential changes of the cell 200 in real time. At this time, 10 mV of AC voltage at a frequency of 3 KHz is applied to the cell sensor 100. In this regard, the frequency of AC voltage applied to the cell sensor 100 may vary depending on the gap size between the first electrode 121 and the second electrode 122, and any frequency other than 3 KHz is also possible, as long as it is a low frequency.
A method for monitoring a cell condition in real time using the cell sensor according to the preferred embodiment of the present invention is as follows.
First, the aforementioned cell sensor is fabricated. The fabricated electrode is sterilized using autoclave equipment and ethanol, and then the well made of acryl or PDMS is attached on the electrode for cell culture.
Next, cells grown to a predetermined density are harvested with trypsin-EDTA, and introduced and attached onto the gap area between the electrodes using a pipette.
Subsequently, the cell-loaded electrodes are placed in a 5% CO2 cell culture incubator at 37° C. and incubated for 12 hrs, in order to tightly attach the cells onto the gap between the electrodes. During incubation, the cells are observed under an optical microscope, whether their conditions are suitable for the experiment.
Thereafter, the fluidic channel is mounted onto the electrodes where the cells are tightly attached, and is fixed on the stage of an optical microscope, of which the bottom is maintained at 37° C. Then, a cell culture media and at least one of biomolecules, cell death-inducing agents and metal particles for observation of endocytosis or adsorption is introduced through the inlet of the fluidic channel. […]
During the cell cultivation, capacitance between the first electrode and the second electrode is measured in real time, and thus endocytosis of the biomolecules into the cells through the cell surface receptor or adsorption is monitored in real time.

[1] = HEP1 cells, pretreatment then virus 1*10^5 per chamber

Molecule	capacitance after the initial peak, virus after pretreatment of the cells [1]	initial capacitance peak on virus endocytosis after pretreatment of the cells [1]	cell capacitance during cell death by cell death-inducing agent (HEP-1 cells, final concentration 50 ng/ml)
NC(=O)c1ncn([C@@H]2O[C@H](CO)[C@@H](O)[C@H]2O)n1 [Ribavirin]	the capacitance after the peak decreases	the initial peak appears	–
B1	–	–	capacitance decreases during cell death
